Measurements taken from publication PMC12525168, “Targeting carA Using Optimized Antisense Peptide Nucleic Acid–Cell-Penetrating Peptide Conjugates in Acinetobacter baumannii: A Novel Antibacterial Approach” (International Journal of Molecular Sciences, 2025).

Key:
A. baumannii ATCC 17978 [1] = experiment: Bactericidal test: colony count after treatment with 50 µM CPP–PNA; assay type: cell-based, Acinetobacter baumannii; settings: for Bactericidal activity in MBC assay (in words) / Average CFU: 50 µM CPP–PNA; for Average CFU: mean of two plates, plated 24 h; for Average CFU / MBC (CFU) in 50 µM CPP–PNA: 4 h at 37 °C; for MBC (CFU) in 50 µM CPP–PNA: 1 × 10^7 CFU/mL inoculum, 50 µL spread on Muller–Hinton agar, 24 h at 37 °C
Description: Artificially synthesized CPP–PNA (carA, […]) conjugates were used to silence carA. Briefly, carA-specific oligonucleotides were identified from the genomic sequence of A. baumannii ATCC 17978 (CP049363.1). The CPP–PNA conjugates, namely KFFK (FFK)2–PNA, KKFK (FFK)2–PNA, and KKKK (FFK)2–PNA, were synthesized by HLB […] Co., LTD. (Daejeon, Republic of Korea). These conjugates were engineered to specifically bind to the translation initiation region of carA, which includes the TTG start codon and the Shine-Dalgarno sequence (TTTGGT) crucial to ribosomal interaction.
To prepare bacterial suspensions, cultures of A. baumannii ATCC 17978 were grown until the OD600 value reached 0.8. The CPP–PNA conjugates were prepared to achieve concentrations of 50 and 0 µM in a total volume of 100 µL per well in 96-well plates. Subsequently, 10 µL of the adjusted bacterial suspension was inoculated into each well (1 × 10^7 CFU/mL). The plates were then incubated at 37 °C for 4 h. Subsequently, 50 µL of each CPP–PNA conjugate-treated bacterial suspension was spread on Muller–Hinton agar plates, with each condition distributed across two plates. The plates were subsequently incubated at 37 °C for 24 h to enable bacterial growth and colony formation.

A. baumannii ATCC 17978 [2] = experiment: MIC by broth microdilution (CLSI); assay type: cell-based, Acinetobacter baumannii; settings: CAMHB with TES buffer, 37 °C, 18–20 h, at least two independent experiments in duplicate
Description: CPP–PNA conjugates were synthesized by HLB […] Co., LTD. The binding sites within A. baumannii ATCC 17978 were predicted and analyzed using Geneious Prime (version 1 February 2025), enabling precise identification of target regions for subsequent antisense PNA design. Specifically, α-PNA modifications introduced arginine, while γ-PNA modifications incorporated guanidino-lysine. The diverse CPP–PNA and α- and γ-modified PNA oligomers were generated via solid-phase peptide synthesis using benzothiazole sulfonyl and standard fluorenylmethyloxycarbonyl chemistry procedures on an automatic synthesizer (HLB-[…]). The synthesized PNA oligomers were cleaved from the solid support resin using a mixed solution containing trifluoroacetic acid. The PNA mixture separated from the solid support was purified using reverse-phase high-performance liquid chromatography, and the purity and molecular weight were determined and confirmed using high-performance liquid chromatography and matrix-assisted laser desorption/ionization time-of-flight mass spectrometry (Figures S1 and S2). The MIC of each CPP–PNA conjugate was determined using the broth microdilution method in accordance with the Clinical and Laboratory Standards Institute guidelines. A. baumannii ATCC 17978 was used as the test strain. The CPP–PNA conjugates were tested at concentrations of […], 3.125, 6.25, 12.5, 25, and 50 µM in 100 µL of cation-adjusted Mueller–Hinton broth with N-Tris (hydroxymethyl) methyl-2-aminoethanesulfonic acid buffer (CAMHB; T3462; Thermo Fisher Scientific, Waltham, MA, USA). The microdilution plates were incubated at 37 °C for 18–20 h. A minimum of two independent experiments, each performed in duplicate, were conducted to ensure reproducibility.

Row | Substance | Bactericidal activity in MBC assay (in words) (A. baumannii ATCC 17978 [1]) | Average CFU (A. baumannii ATCC 17978 [1]) | MBC (CFU) in 50 µM CPP–PNA (A. baumannii ATCC 17978 [1]; plate 1 of two) | MBC (CFU) in 50 µM CPP–PNA (A. baumannii ATCC 17978 [1]; plate 2 of two) | MIC (A. baumannii ATCC 17978 [2]) [µM]
1 | KFFK(FFK)2-TCAAACCAAAGCT: KFFK(FFK)2 cell-penetrating peptide conjugated to unmodified 13-mer antisense PNA TCAAACCAAAGCT targeting carA RBS (all peptide nucleic acid (PNA); KFFK(FFK)2 peptide conjugated) | No A. baumannii colonies were detected | 0 CFU | 0 CFU | 0 CFU | 25
2 | KKFK(FFK)2-TCAAACCAAAGCT: KKFK(FFK)2 cell-penetrating peptide conjugated to 13-mer antisense PNA TCAAACCAAAGCT targeting carA (all peptide nucleic acid (PNA); KKFK(FFK)2 peptide conjugated) | – | 10.5 CFU | 7 CFU | 14 CFU | –
3 | KKKK(FFK)2-TCAAACCAAAGCT: KKKK(FFK)2 cell-penetrating peptide conjugated to 13-mer antisense PNA TCAAACCAAAGCT targeting carA (all peptide nucleic acid (PNA); KKKK(FFK)2 peptide conjugated) | no bactericidal activity | TNTC | TNTC | TNTC | –
4 | Control 3 (acpP): KFFK(FFK)2 conjugated to PNA TGATTTGCCAC targeting acpP [reference compound] | – | – | – | – | 25
5 | Control 4 (ftsZ): KFFK(FFK)2 conjugated to PNA GAGGCCATGAC targeting ftsZ [reference compound] | – | – | – | – | 50
6 | Control 5 (rne): KFFK(FFK)2 conjugated to PNA ACGTTTCATGG targeting rne [reference compound] | – | – | – | – | 50
7 | KFFK(FFK)2-TTACTGTTTAGAT: KFFK(FFK)2 conjugated to 13-mer PNA targeting carA stop codon (all peptide nucleic acid (PNA); KFFK(FFK)2 cell-penetrating peptide conjugated to the PNA, attachment site not given here) | – | – | – | – | 50
8 | KFFK(FFK)2-TCAAA*CCA*AAGCT: KFFK(FFK)2 conjugated to γ-modified 13-mer PNA targeting carA RBS (TCAAACCAAAGCT; KFFK(FFK)2 peptide conjugate, γ-modified PNA, chemistry not fully specified) | – | – | – | – | 25
9 | KFFK(FFK)2-CGGGGGTGCTCAA: KFFK(FFK)2 conjugated to 13-mer PNA targeting carA start codon (all peptide nucleic acid (PNA); KFFK(FFK)2 cell-penetrating peptide conjugated to the PNA, attachment site not given here) | – | – | – | – | >50
